The values that follow come from publication PMC3792216 (Biomolecules & Therapeutics, 2012).

The target of assay [1] is estrogen receptor alpha (hERα) (Homo sapiens, UniProt P03372). Nature of the assay: competitive displacement of [3H]-E2 radioligand, filter binding.
For assay [2], the target named is estrogen receptor beta (hERβ) (Homo sapiens, UniProt Q92731). The description is as above.
estrogen receptor beta (hERβ), sequence (Q92731 whole entry): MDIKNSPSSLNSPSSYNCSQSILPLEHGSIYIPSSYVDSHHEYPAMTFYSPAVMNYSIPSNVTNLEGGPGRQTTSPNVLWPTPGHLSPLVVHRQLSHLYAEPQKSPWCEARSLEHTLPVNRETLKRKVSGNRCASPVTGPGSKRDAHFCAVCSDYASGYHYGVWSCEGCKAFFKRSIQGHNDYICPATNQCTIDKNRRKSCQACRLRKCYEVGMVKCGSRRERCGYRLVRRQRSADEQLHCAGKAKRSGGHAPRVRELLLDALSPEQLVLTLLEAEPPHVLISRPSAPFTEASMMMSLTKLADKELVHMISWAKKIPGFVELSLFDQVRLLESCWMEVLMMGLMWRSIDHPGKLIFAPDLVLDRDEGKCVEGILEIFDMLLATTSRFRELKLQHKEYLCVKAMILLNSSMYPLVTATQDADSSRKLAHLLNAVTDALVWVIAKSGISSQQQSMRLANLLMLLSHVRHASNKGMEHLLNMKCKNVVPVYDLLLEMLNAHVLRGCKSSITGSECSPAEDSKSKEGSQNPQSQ

estrogen receptor alpha (hERα), sequence (P03372 whole entry): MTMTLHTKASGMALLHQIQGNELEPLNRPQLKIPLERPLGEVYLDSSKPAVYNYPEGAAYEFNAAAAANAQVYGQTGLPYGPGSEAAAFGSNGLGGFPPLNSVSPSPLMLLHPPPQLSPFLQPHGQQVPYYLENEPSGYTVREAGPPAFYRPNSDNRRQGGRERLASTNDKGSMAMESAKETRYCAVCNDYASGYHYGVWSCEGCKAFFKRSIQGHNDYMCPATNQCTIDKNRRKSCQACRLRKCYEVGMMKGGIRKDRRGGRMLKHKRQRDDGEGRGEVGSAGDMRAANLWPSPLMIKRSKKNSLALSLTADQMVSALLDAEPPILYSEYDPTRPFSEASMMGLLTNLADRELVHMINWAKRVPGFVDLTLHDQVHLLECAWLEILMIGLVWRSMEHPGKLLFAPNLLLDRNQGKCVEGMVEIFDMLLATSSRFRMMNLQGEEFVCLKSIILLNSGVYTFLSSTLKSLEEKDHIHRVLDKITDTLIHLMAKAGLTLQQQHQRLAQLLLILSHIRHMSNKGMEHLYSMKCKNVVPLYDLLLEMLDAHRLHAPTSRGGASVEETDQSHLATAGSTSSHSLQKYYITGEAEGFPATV

For `CC(C)=CCc1cc2c(cc1O)O[C@H](c1ccc(O)cc1)CC2=O` [bavachin], the values for the IC50 in assay [1] and in assay [2] were 65.7 µM and 38 µM, respectively.
